Assay results: patent US4281009A, “Hydantoin derivatives” (Nippon Zoki Pharmaceutical Co., Ltd., priority 1978, dated 1981)

Experiments:
SART stress mice = test: Inhibitory effects on increase of heart rate and elongation of QRS-time in SART stress mice; type: in vivo, mice (dd-strain male); settings: 100 mg/kg/day, 9th day, Average ± S.D.
Protocol: SART stress animals used in the tests described below were raised according to a method of Kita, et al. [Folia Pharmacol. Japan.: 71, 195-210 (1975)].
2. Inhibitory effects on increase of heart rate and elongation of QRS-time in stress animals:
Groups of mice each comprising 11 or 12 dd-strain male mice were divided into three groups in the same manner as above and heart rate and QRS-time were determined on the 9th day after initiation of the tests.

dd-strain male mice [1] = test: Inhibitory effect on exploratory movements; type: in vivo; settings: 150 mg/kg intraperitoneal, after 60 minutes
Protocol: 4.2. Inhibitory effect on exploratory movements:
Groups each comprising 16-35 dd-strain male mice were used. The compounds of the present invention were given intraperitoneally. After 60 minutes, exploratory movements for 15 minutes were measured with an exploratory movement recorder by a method of Tokyo Kyoiku University.

dd-strain male mice [2] = test: Inhibitory effect on spontaneous motor activities (Animex method); type: in vivo; settings: after 60 minutes
Protocol: 4.1 Inhibitory effect on spontaneous motor activities:
Groups each comprising 8-16 dd-strain male mice were used. The compounds of the present invention were given intraperitoneally. After 60 minutes, spontaneous motor activities for 15 minutes were measured by the Animex method.

[3] = tested on: normal mice and SART stress mice; test: Analgesic effect, tail pressure method (Randall-Selitto's device); type: in vivo, mice (ddY-strain male); settings: Mus musculus; for change in vivo at 100 mg/kg / change in vivo at 200 mg/kg: ip; for change in vivo at 500 mg/kg: po, peroral 500 mg/kg; for change in vivo at 200 mg/kg: intraperitoneal 200 mg/kg
Protocol: 5.1 Tail pressure method:
Randall-Selitto's device for determining analgesic effect by pressure stimulation was used. […]. The compounds of the present invention or other comparative drugs were given thereto and analgesic effect was determined. The effect was judged by measuring pressure applied 60 minutes after the intraperitoneal administration of the compounds of the present invention. The pressure thus measured was divided by a pressure before the administration. The value thus obtained was compared with that of a control group (to which 10 ml./Kg of 0.5% sodium salt of carboxymethylcellulose or 0.5% Tween 80 was given). When the compounds of the present invention were given perorally and other comparative drugs were given, an average of the pressure at 30, 60, 90 and 120 minutes after the administration was employed for evaluating the effect.

[4] = Acute toxicity test (LD50, Litchfield-Wilcoxon), rats; settings: rat, in vivo, ip, intraperitoneal
Protocol: (§1) Toxicity tests were carried out by intraperitoneal administration of the compound of the present invention to groups each comprising 10 ICR-strain mice and SD-strain rats. LD50 was calculated by the Litchfield-Wilcoxon method based on the number of death 72 hours after the administration.

ddY-strain male mice = test: Effect of prolongation of sleeping time (hexobarbital); type: in vivo; settings: for change in vivo at 100 mg/kg: 100 mg/kg intraperitoneal
Protocol: 7. Effect of prolongation of sleeping time:
Groups of mice each comprising 10 ddY-strain male mice were used. Sodium salt of hexobarbital was given intraperitoneally. Thereafter, the period of time in which righting reflex disappeared was measured. The effect was evaluated on the basis of prolongation of time of disappearance of righting reflex by the intraperitoneal administration of the compounds of the present invention as compared with control mice.

[5] = tested on: normal mice and SART stress mice; test: Analgesic effect, acetic acid writhing method; type: in vivo; settings: Mus musculus, sc, 100 mg/Kg subcutaneously
Protocol: 5.2. Acetic acid writhing method: 0.1 ml./10 g of isotonic sodium chloride solution containing 0.7% acetic acid was given intraperitoneally to groups of mice each comprising 5 normal mice and 5 SART stress mice to which SART stress had been applied for 8 days. Writhing syndromes number appeared for 15 minutes after the administration was measured. The effect was evaluated by giving 100 mg/Kg of the compounds of the present invention or DPH subcutaneously and comparing the writhing syndromes number of the mice with that of control mice.

dd-strain male mice [6] = test: Antiulcerogenic effect on Takagi's restraint-plus-water-immersing ulcer; type: in vivo
Protocol: 6.1 Antiulcerogenic effect on Takagi's restraint-plus-water-immersing ulcer: Groups each comprising 8-26 dd-strain male mice were used. The tests were carried out according to a method of Takagi, et al. [Chem. Pharm. Bull.; 12, 465 (1964)]. Sum of length of diseased parts in the glandular stomach was measured and it was compared with that of control group. The compounds of the present invention or DPH was given intraperitoneally immediately before the restraint and immersion in water.

dd-strain male mice [7] = test: Inhibitory effect on Tremorine-induced tremor; type: in vivo; settings: tremorine 10 mg/Kg
Protocol: 9. Inhibitory effect on Tremorine-induced tremor:
Groups of mice each comprising 10-40 dd-strain male mice were used. Effect of the compounds of the present invention on tremor caused by tremorine was examined. The compounds of the present invention or DPH was given intraperitoneally. 45 minutes thereafter, 10 mg/Kg of tremorine was given intraperitoneally for inducing the tremor.

Wistar-strain male rats = test: Antiulcerogenic effect on Shay's ulcer (operative ulcer); type: in vivo; settings: 10 times
Protocol: 6.2. Antiulcerogenic effect on Shay's ulcer (operative ulcer):
Tests were carried out by using groups of rats each comprising 5-10 Wistar-strain male rats according to Shay method [Shay Harry; Gastroenterology,; 5, 43 (1945)]. Ulcers in the anterior stomach were classified on the following basis:
2. 1-5 small ulcers (diameter of less than 3 mm)
3. 6 or more small ulcers or one big ulcer (diameter of more than 3 mm)
4. two or more big ulcers

[8] = tested on: normal mice and SART stress mice; test: Analgesic effect, D'Amour-Smith method; type: in vivo, mice (ddY-strain male); settings: Mus musculus; for responders at 200 mg/kg: ip, intraperitoneal 200 mg/kg; for responders at 500 mg/kg: po, peroral 500 mg/kg
Protocol: 5.3. D'Amour-Smith method:
Groups each comprising 10 ddY-strain male normal mice and SART stress mice to which SART stress had been applied for 4 days were used. The root of the tail of the mouse to which black ink was applied was irradiated with infrared rays for up to 15 seconds. Time required till escape response was observed was measured. The effect was shown by the ratio of the mice in which an average value of the response time at 30, 60, 90 and 120 minutes after the administration of the compounds of the present invention or other comparative drugs was prolonged to at least 2 times as long as the time before the administration.

[9] = Acute toxicity test (LD50, Litchfield-Wilcoxon), mice; settings: mouse, in vivo, ip, intraperitoneal
Protocol: as §1

[10] = tested on: spontaneously hypertensive rats (SHR); test: Antihypertensive effect in spontaneously hypertensive rats; type: in vivo; settings: 150 mg/Kg intraperitoneal, 60 minutes
Protocol: 8. Antihypertensive effect: Groups of rats each comprising 6-9 spontaneously hypertensive rats (SHR) were used. The compounds of the present invention or DPH was given intraperitoneally. The rate of antihypertension 60 minutes after the administration was determined.

[11] = tested on: normal rats and SART stress rats; test: Analgesic effect, pain induced by Bradykinin; type: in vivo, rats (SD-strain male)
Protocol: 5.4 Method of measuring a pain induced by Bradykinin:
Groups each comprising 4-8 SD-strain male normal rats and SART stress rats to which SART stress had been applied for 4 days were used. The tests were carried out according to the method of Deffenu et al. [Deffenu, G., Pegrassi, L., & Fumachi. B.; J. Pharm. Pharmacol.; 18, 135 (1966)] and Blane method [Blane, G. F.; J. Pharm. Pharmacol.; 19, 367 (1967)]. The effect judged was shown by ratio of the rats in which the effect was recognized according to the method of Abe, et al. [Abe, Kaneko & Takagi; Folia Pharmacol. Japon.; 67, 9-14 (1971)].

With `O=C1NC(=O)C(c2ccc(O)cc2)(c2cccs2)N1` (centres unmarked) [Compound 1, 5-(4-Hydroxyphenyl)-5-(2-thienyl)hydantoin] the Heart rate (SART stress mice) was 741 ± 39 min⁻¹, the QRS-time (SART stress mice) was 13.9 ± 0.8 1/1000 sec and the “Inhibitory effect on exploratory movements” value (dd-strain male mice [1]) was 33.2%. For the same molecule, the “Inhibitory effect on spontaneous motor activities” value (dd-strain male mice [2]; 50 mg/kg intraperitoneal) was 22.4%, the “Inhibitory effect on spontaneous motor activities” value (dd-strain male mice [2]; 150 mg/kg intraperitoneal) was 30.7% and the change in vivo at 100 mg/kg ([3]; 1 h, SART stress mice, intraperitoneal 100 mg/kg, 60 minutes) was 82.3%. The change in vivo at 100 mg/kg ([3]; 1 h, normal mice, intraperitoneal 100 mg/kg, 60 minutes) was 26.9%, the LD50 at 72 h ([4]; female) was over 3000 mg/kg and the LD50 at 72 h ([4]; male) was over 3000 mg/kg. It also gave a change in vivo at 100 mg/kg (ddY-strain male mice; Mus musculus, ip) of 36.9%, an inhibition in vivo at 100 mg/kg ([5]; SART stress mice) of 20.9% and an inhibition in vivo at 100 mg/kg ([5]; normal mice) of 2.4%. For the same molecule, the inhibition in vivo at 150 mg/kg (dd-strain male mice [6]; Mus musculus, ip, 150 mg/kg intraperitoneal) was 30.6%, the “Inhibitory effect on Tremorine-induced tremor” value (dd-strain male mice [7]; 150 mg/kg intraperitoneal) was 33% and the “Antiulcerogenic effect on Shay's ulcer (operative ulcer)” value (from here on “Antiulcerogenic effect on Shay's ulcer”) (Wistar-strain male rats; 100 mg/kg intraperitoneal) was 14.6%. The “Antiulcerogenic effect on Shay's ulcer” value (Wistar-strain male rats; 150 mg/kg intraperitoneal) was 26.5%, the responders at 200 mg/kg ([8]; SART stress mice) was 30% and the responders at 200 mg/kg ([8]; normal mice) was 20%. For the same molecule, the LD50 at 72 h ([9]; female) was 2000 to 3000 mg/kg and the LD50 at 72 h ([9]; male) was over 3000 mg/kg.
With `O=C1NC(=O)C(c2ccccc2)(c2ccccc2)N1` [DPH, 5,5-diphenylhydantoin, reference compound] the Rate of antihypertension [10] was 6.6%, the change in vivo at 100 mg/kg ([3]; SART stress mice, comparative drug intraperitoneal 100 mg/kg, average of 30, 60, 90 and 120 minutes) was 18.4% and the change in vivo at 100 mg/kg ([3]; normal mice, comparative drug intraperitoneal 100 mg/kg, average of 30, 60, 90 and 120 minutes) was -33.1%. The change in vivo at 500 mg/kg ([3]; SART stress mice, average of 30, 60, 90 and 120 minutes) was 17.9%, the change in vivo at 500 mg/kg ([3]; normal mice, average of 30, 60, 90 and 120 minutes) was 5.9% and the inhibition in vivo at 100 mg/kg ([5]; SART stress mice) was -6%. The inhibition in vivo at 100 mg/kg ([5]; normal mice) was -16.3%, the “Antiulcerogenic effect on Takagi's restraint-plus-water-immersing ulcer” value (dd-strain male mice [6]; 50 mg/kg intraperitoneal) was 7.8% and the inhibition in vivo at 100 mg/kg (dd-strain male mice [6]; Mus musculus, ip, 100 mg/kg intraperitoneal) was 9%. For the same molecule, the Analgesic effect ([11]; SART stress rats, peroral 500 mg/kg) was 0%, the Analgesic effect ([11]; normal rats, peroral 500 mg/kg) was 0% and the “Inhibitory effect on Tremorine-induced tremor” value (dd-strain male mice [7]; 50 mg/kg intraperitoneal) was 0%. The “Inhibitory effect on Tremorine-induced tremor” value (dd-strain male mice [7]; 100 mg/kg intraperitoneal) was 0%, the responders at 500 mg/kg ([8]; SART stress mice) was 0% and the responders at 500 mg/kg ([8]; normal mice) was 0%.
For `CCC1(c2ccc(O)cc2)NC(=O)NC1=O` (centres unmarked) [Compound 24, 5-Ethyl-5-(4-hydroxyphenyl)hydantoin], the Heart rate (SART stress mice) was 729 ± 58 min⁻¹, the QRS-time (SART stress mice) was 13.3 ± 0.9 1/1000 sec and the change in vivo at 200 mg/kg ([3]; 1 h, SART stress mice, 60 minutes) was 31.2%. For the same molecule, the change in vivo at 200 mg/kg ([3]; 1 h, normal mice, 60 minutes) was 20.4%, the LD50 at 72 h ([4]; female) was over 5000 mg/kg and the LD50 at 72 h ([4]; male) was over 5000 mg/kg. The “Effect of prolongation of sleeping time” value (ddY-strain male mice; 50 mg/kg intraperitoneal) was 42.1%, the change in vivo at 100 mg/kg (ddY-strain male mice; Mus musculus, ip) was 54.4% and the change in vivo at 300 mg/kg (ddY-strain male mice; Mus musculus, ip, 300 mg/kg intraperitoneal) was 84.4%. The inhibition in vivo at 75 mg/kg (dd-strain male mice [6]; Mus musculus, ip, 75 mg/kg intraperitoneal) was 11.9%, the inhibition in vivo at 125 mg/kg (dd-strain male mice [6]; Mus musculus, ip, 125 mg/kg intraperitoneal) was 27.5% and the Analgesic effect ([11]; SART stress rats, intraperitoneal 100 mg/kg) was 50%. For the same molecule, the Analgesic effect ([11]; normal rats, intraperitoneal 100 mg/kg) was 20%, the “Inhibitory effect on Tremorine-induced tremor” value (dd-strain male mice [7]; 150 mg/kg intraperitoneal) was 40% and the “Antiulcerogenic effect on Shay's ulcer” value (Wistar-strain male rats; 50 mg/kg intraperitoneal) was 17.5%. For the same molecule, the “Antiulcerogenic effect on Shay's ulcer” value (Wistar-strain male rats; 100 mg/kg intraperitoneal) was 32.2%, the LD50 at 72 h ([9]; female) was over 5000 mg/kg and the LD50 at 72 h ([9]; male) was over 5000 mg/kg.
